According to the supplement of paper PMC8253809:
± gives the standard deviation of the averaged measurements.

Experiments:
Test in all cases: growth inhibition relative to DMSO (0) and positive control (1) (fraction); higher = more growth inhibition
DIPGX29 [1] = system: DIPGX29 (H3.3 K27M diffuse intrinsic pontine glioma line)
Experimental: (§1)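 Single-agent arm (compound 1 only) of the paxalisib / mirdametinib dose-matrix plates, 7 days, adherent 384-well. CellTiter-Glo RLU was normalised to fractional activity between DMSO (0) and the positive control (1).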

DIPGX37 [2] = system: DIPGX37 (H3.3 K27M diffuse intrinsic pontine glioma line)
Experimental: as §1

DIPGX7 [3] = system: DIPGX7 (H3.3 K27M diffuse intrinsic pontine glioma line)
Experimental: as §1

HABS [4] = system: HABS (astrocyte control)
Experimental: as §1

HGGX42 [5] = system: HGGX42 (H3.3 G34R paediatric high-grade glioma line)
Experimental: as §1

HGGX6 [6] = system: HGGX6 (H3.3 G34R paediatric high-grade glioma line)
Experimental: as §1

iASTRO [7] = system: iASTRO (astrocyte control)
Experimental: as §1

DIPGX29 [8] = system: DIPGX29; remark: listed apart in the source
Experimental: (§2)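 Single-agent arm (compound 2 only) of the paxalisib / mirdametinib dose-matrix plates, 7 days, adherent 384-well. CellTiter-Glo RLU was normalised to fractional activity between DMSO (0) and the positive control (1).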

DIPGX37 [9] = system: DIPGX37; remark: listed apart in the source
Experimental: as §2

DIPGX7 [10] = system: DIPGX7; remark: listed apart in the source
Experimental: as §2

HABS [11] = system: HABS; remark: listed apart in the source
Experimental: as §2

HGGX42 [12] = system: HGGX42; remark: listed apart in the source
Experimental: as §2

HGGX6 [13] = system: HGGX6; remark: listed apart in the source
Experimental: as §2

iASTRO [14] = system: iASTRO; remark: listed apart in the source
Experimental: as §2

O=C(NOC[C@H](O)CO)c1ccc(F)c(F)c1Nc1ccc(I)cc1F
growth inhibition
Conditions	0.009766 µM	0.01953 µM	0.03906 µM	0.07812 µM	0.15625 µM	0.3125 µM	0.625 µM	1.25 µM	5 µM	20 µM
DIPGX7 [3]	0.00514 ± 0.056	-0.0128 ± 0.076	-0.0429 ± 0.087	-0.0583 ± 0.075	-0.0706 ± 0.066	-0.0675 ± 0.058	-0.0189 ± 0.064	0.069 ± 0.053	0.226 ± 0.022	0.169 ± 0.025
DIPGX7 [10]	–	–	-0.134 ± 0.019	-0.0334 ± 0.034	-0.0318 ± 0.059	-0.00916 ± 0.051	0.0291 ± 0.044	0.0919 ± 0.03	0.221 ± 0.018	0.144 ± 0.034
DIPGX29 [1]	0.0664 ± 0.033	0.079 ± 0.049	0.113 ± 0.054	0.122 ± 0.036	0.121 ± 0.033	0.185 ± 0.045	0.301 ± 0.039	0.44 ± 0.019	0.787 ± 0.025	0.903 ± 0.015
DIPGX29 [8]	–	–	0.0243 ± 0.038	0.134 ± 0.032	0.108 ± 0.027	0.159 ± 0.05	0.301 ± 0.025	0.477 ± 0.025	0.795 ± 0.018	0.903 ± 0.013
DIPGX37 [2]	-0.0815 ± 0.057	-0.107 ± 0.047	-0.0915 ± 0.064	-0.0274 ± 0.049	0.0635 ± 0.065	0.18 ± 0.039	0.339 ± 0.041	0.511 ± 0.032	0.9225 ± 0.0066	0.9749 ± 0.0035
DIPGX37 [9]	–	–	-0.168 ± 0.035	-0.0488 ± 0.028	0.038 ± 0.017	0.147 ± 0.014	0.274 ± 0.021	0.418 ± 0.02	0.857 ± 0.022	0.9777 ± 0.0051
HABS [4]	-0.13 ± 0.075	-0.164 ± 0.066	-0.228 ± 0.077	-0.269 ± 0.067	-0.234 ± 0.049	-0.0414 ± 0.042	0.126 ± 0.04	0.275 ± 0.038	0.665 ± 0.016	0.853 ± 0.014
HABS [11]	–	–	-0.334 ± 0.054	-0.268 ± 0.041	-0.258 ± 0.019	-0.201 ± 0.026	-0.0364 ± 0.023	0.168 ± 0.015	0.618 ± 0.015	0.797 ± 0.02
HGGX6 [6]	-0.059 ± 0.083	-0.035 ± 0.067	-0.0725 ± 0.049	-0.0513 ± 0.081	-0.0455 ± 0.091	0.0143 ± 0.071	0.0902 ± 0.065	0.0994 ± 0.044	0.353 ± 0.031	0.581 ± 0.034
HGGX6 [13]	–	–	-0.174 ± 0.017	-0.0709 ± 0.045	-0.0557 ± 0.046	0.064 ± 0.054	0.133 ± 0.033	0.156 ± 0.07	0.414 ± 0.039	0.596 ± 0.03
HGGX42 [5]	-0.0885 ± 0.058	-0.0961 ± 0.053	-0.107 ± 0.081	-0.127 ± 0.071	-0.145 ± 0.051	-0.165 ± 0.056	-0.133 ± 0.056	-0.126 ± 0.068	0.241 ± 0.057	0.441 ± 0.071
HGGX42 [12]	–	–	-0.199 ± 0.028	-0.114 ± 0.032	-0.121 ± 0.013	-0.215 ± 0.043	-0.198 ± 0.026	-0.0799 ± 0.028	0.284 ± 0.025	0.494 ± 0.03
iASTRO [7]	0.0411 ± 0.07	0.0442 ± 0.061	0.0806 ± 0.067	0.0816 ± 0.075	0.113 ± 0.088	0.124 ± 0.08	0.173 ± 0.1	0.119 ± 0.1	0.0668 ± 0.11	0.0562 ± 0.074
iASTRO [14]	–	–	0.0464 ± 0.04	0.0732 ± 0.046	0.0675 ± 0.063	0.0849 ± 0.071	0.116 ± 0.077	0.0295 ± 0.097	0.0268 ± 0.089	0.058 ± 0.09

CC1(C)OCCn2c1nc1c(N3CCOCC3)nc(-c3cnc(N)nc3)nc12 [GDC0084]
growth inhibition
Conditions	0.009766 µM	0.01953 µM	0.03906 µM	0.07812 µM	0.15625 µM	0.3125 µM	0.625 µM	1.25 µM	5 µM	20 µM
DIPGX7 [3]	0.0627 ± 0.072	0.0708 ± 0.079	0.104 ± 0.064	0.186 ± 0.048	0.381 ± 0.032	0.622 ± 0.015	0.771 ± 0.011	0.8548 ± 0.0053	0.9176 ± 0.004	0.977 ± 0.013
DIPGX7 [10]	–	–	0.051 ± 0.018	0.197 ± 0.023	0.446 ± 0.019	0.658 ± 0.014	0.787 ± 0.011	0.8579 ± 0.0078	0.9157 ± 0.0033	0.9671 ± 0.0092
DIPGX29 [1]	0.073 ± 0.045	0.102 ± 0.064	0.178 ± 0.065	0.216 ± 0.057	0.266 ± 0.044	0.357 ± 0.043	0.491 ± 0.033	0.595 ± 0.031	0.8914 ± 0.0077	0.9212 ± 0.0078
DIPGX29 [8]	–	–	0.0637 ± 0.05	0.169 ± 0.041	0.232 ± 0.036	0.295 ± 0.045	0.423 ± 0.042	0.603 ± 0.034	0.87 ± 0.016	0.9389 ± 0.0064
DIPGX37 [2]	-0.0429 ± 0.047	-0.0173 ± 0.049	0.0381 ± 0.051	0.138 ± 0.046	0.304 ± 0.041	0.453 ± 0.04	0.566 ± 0.03	0.71 ± 0.019	0.9509 ± 0.0075	0.9986 ± 0.001
DIPGX37 [9]	–	–	-0.00546 ± 0.034	0.192 ± 0.028	0.323 ± 0.035	0.499 ± 0.021	0.598 ± 0.0086	0.756 ± 0.013	0.9558 ± 0.0046	0.99839 ± 0.00073
HABS [4]	0.075 ± 0.049	0.0784 ± 0.061	0.0871 ± 0.046	0.118 ± 0.048	0.171 ± 0.021	0.208 ± 0.026	0.326 ± 0.031	0.489 ± 0.013	0.807 ± 0.019	0.9807 ± 0.0063
HABS [11]	–	–	-0.0282 ± 0.025	0.105 ± 0.04	0.153 ± 0.028	0.193 ± 0.027	0.29 ± 0.022	0.463 ± 0.021	0.807 ± 0.011	0.9834 ± 0.0019
HGGX6 [6]	-0.0247 ± 0.052	-0.0158 ± 0.068	0.0132 ± 0.048	0.0493 ± 0.052	0.125 ± 0.048	0.232 ± 0.059	0.359 ± 0.057	0.507 ± 0.047	0.758 ± 0.017	0.869 ± 0.0092
HGGX6 [13]	–	–	-0.045 ± 0.048	0.0144 ± 0.034	0.106 ± 0.049	0.211 ± 0.047	0.329 ± 0.036	0.486 ± 0.044	0.741 ± 0.02	0.872 ± 0.01
HGGX42 [5]	0.0532 ± 0.075	0.0705 ± 0.066	0.164 ± 0.095	0.226 ± 0.076	0.378 ± 0.072	0.528 ± 0.053	0.685 ± 0.036	0.777 ± 0.036	0.885 ± 0.018	0.913 ± 0.014
HGGX42 [12]	–	–	0.112 ± 0.028	0.274 ± 0.061	0.471 ± 0.058	0.516 ± 0.048	0.673 ± 0.024	0.782 ± 0.028	0.8721 ± 0.0077	0.898 ± 0.022
iASTRO [7]	0.019 ± 0.037	0.0114 ± 0.041	0.00198 ± 0.034	0.00243 ± 0.034	0.00554 ± 0.033	-0.0144 ± 0.053	-0.0681 ± 0.044	-0.0251 ± 0.043	0.577 ± 0.042	0.706 ± 0.026
iASTRO [14]	–	–	0.0361 ± 0.031	0.0247 ± 0.043	0.0269 ± 0.042	-0.0092 ± 0.05	-0.0383 ± 0.036	0.0569 ± 0.044	0.631 ± 0.033	0.726 ± 0.01
